{
  "source": "patent EP1964562A1",
  "about": "“PHARMACEUTICAL COMPOSITIONS CONTAINING DERIVATIVE SUBSTANCES OF THIAZOLIDINEDIONES COMBINED WITH A BIGUANIDE FOR USE IN TYPE 2 DIABETES MELLITUS” (priority 2005, dated 2007)",
  "key": {"[1]": {"test_system": "serum proteins, particularly serum albumin", "conditions": "human; cited from earlier work"}, "[2]": {"conditions": "cited from earlier work"}, "P-450 activity": {"test_system": "P-450 activity", "conditions": "incubated with human P-450 liver microsomes; cited from earlier work"}, "[3]": {"molecular_target": "T1, serum proteins, particularly serum albumin (Homo sapiens, UniProt P02768)", "T1 construct": "host or cells: serum", "T1 sequence (P02768 25-609)": "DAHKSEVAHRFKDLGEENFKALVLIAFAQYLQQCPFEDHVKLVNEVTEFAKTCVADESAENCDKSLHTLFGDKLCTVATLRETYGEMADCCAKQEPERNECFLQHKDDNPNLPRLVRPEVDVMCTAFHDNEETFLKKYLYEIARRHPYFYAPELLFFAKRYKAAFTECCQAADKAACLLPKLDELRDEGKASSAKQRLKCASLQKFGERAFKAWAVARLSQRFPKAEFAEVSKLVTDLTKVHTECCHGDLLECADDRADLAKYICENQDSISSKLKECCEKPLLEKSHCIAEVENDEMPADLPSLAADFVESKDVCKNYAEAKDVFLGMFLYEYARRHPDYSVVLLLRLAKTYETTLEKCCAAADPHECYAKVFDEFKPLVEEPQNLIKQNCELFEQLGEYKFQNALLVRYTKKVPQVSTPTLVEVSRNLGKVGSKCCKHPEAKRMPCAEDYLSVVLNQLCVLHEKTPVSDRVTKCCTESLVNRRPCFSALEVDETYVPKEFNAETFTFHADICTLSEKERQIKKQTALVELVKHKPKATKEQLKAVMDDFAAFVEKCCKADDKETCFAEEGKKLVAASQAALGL", "conditions": "serum albumin; cited from earlier work"}, "[4]": {"test_system": "animal models of diabetes", "conditions": "animal models of type 2 diabetes; cited from earlier work"}, "[5]": {"test_system": "hepatic pioglitazone metabolism", "conditions": "in vitro, molar concentration equal to pioglitazone; cited from earlier work"}, "[6]": {"test_system": "individuals diagnosed with DM2 and obesity", "experiment": "Example 1: multicentric, randomized, double blind placebo-controlled trial, 8 weeks", "format": "in vivo, patients", "method": "A multicentric, randomized, double blind placebo-controlled trial was conducted. In which 600 individuals diagnosed with DM2 and obesity with a BMI higher than 35 kg/m^2 were included."}, "[7]": {"conditions": "cited from earlier work", "remark": "listed apart in the source"}, "[8]": {"test_system": "patients diagnosed with DM2 and obesity", "experiment": "Example 2: multicentric, randomized, double blind placebo-controlled trial, 12 weeks", "format": "in vivo", "conditions": "compared to levels at admission", "method": "A multicentric, randomized, double blind placebo-controlled trial was conducted. In which 300 patients diagnosed with DM2 and obesity were included. The object of the study was to establish the reduction in lipid profile and in overweight."}, "lipid metabolism": {"test_system": "lipid metabolism", "conditions": "therapeutic doses, short and long term clinical studies; cited from earlier work"}},
  "note": "Where two headings read alike, the source gives them in different places.",
  "data": [
    {"smiles": "CCc1ccc(CCOc2ccc(CC3SC(=O)NC3=O)cc2)nc1", "note": "(centres unmarked) [pioglitazone, Pioglitazone]", "values": [
      {"measurement": "bound to serum proteins", "setting": "[1]", "result": "> 99", "unit": "%"},
      {"measurement": "apparent clearance, CL/F", "setting": "[2]; calculated", "result": "5 to 7", "unit": "L/h"},
      {"measurement": "mean serum half-live", "setting": "[2]; human, serum", "result": "3 to 7", "unit": "h"},
      {"measurement": "renal elimination", "setting": "[2]; in vivo", "result": "negligible"},
      {"measurement": "time to reach steady-state serum concentrations", "setting": "[2]; in vivo", "result": "≤ 7", "unit": "days"},
      {"measurement": "time to maximum concentrations", "setting": "[2]; oral administration at fasting", "result": "≤ 2", "unit": "h"},
      {"measurement": "time until measurable in serum", "setting": "[2]; oral administration at fasting", "result": "≤ 30", "unit": "min"},
      {"measurement": "inhibition of P-450 activity", "setting": "P-450 activity", "result": "did not inhibit"}
    ]},
    {"smiles": "CC(=O)c1ccc(CCOc2ccc(CC3SC(=O)NC3=O)cc2)nc1", "note": "(centres unmarked) [M-III]", "values": [
      {"measurement": "bound to serum albumin", "setting": "[3]", "result": "> 98", "unit": "%"},
      {"measurement": "pharmacological activity", "setting": "[4]", "result": "pharmacologically active"}
    ]},
    {"smiles": "CC(O)c1ccc(CCOc2ccc(CC3SC(=O)NC3=O)cc2)nc1", "note": "(centres unmarked) [M-IV]", "values": [
      {"measurement": "bound to serum albumin", "setting": "[3]", "result": "> 98", "unit": "%"},
      {"measurement": "pharmacological activity", "setting": "[4]", "result": "pharmacologically active"}
    ]},
    {"smiles": "CC(=O)N1CCN(c2ccc(OCC3COC(Cn4ccnc4)(c4ccc(Cl)cc4Cl)O3)cc2)CC1", "note": "(centres unmarked) [Ketoconazole]", "values": [
      {"measurement": "inhibition of hepatic pioglitazone metabolism", "setting": "[5]", "result": "up to 85%"}
    ]},
    {"smiles": "CN(C)C(=N)N=C(N)N", "note": "[metformin, Metformin]", "values": [
      {"measurement": "patients' weight change", "setting": "[6]", "result": "increased"},
      {"measurement": "increase of Tmax by food", "setting": "[7]; dose of 850 mg, with food", "result": 0.583, "unit": "h"},
      {"measurement": "Tmax", "setting": "[7]; human, in vivo, po", "result": 2.5, "unit": "h"},
      {"measurement": "maximum plasma concentration", "setting": "[7]; human, in vivo, po", "result": "≤ 4", "unit": "µg/mL"},
      {"measurement": "non-absorbed fraction recovered in the feces", "setting": "[7]; human, in vivo, po", "result": "20-30%"},
      {"measurement": "steady-state plasma concentrations", "setting": "[7]; human, in vivo, po", "result": "less than 1 µg/ml"},
      {"measurement": "maximum plasma concentration", "setting": "[7]; human, plasma, po", "result": 1.5, "unit": "µg/mL"},
      {"measurement": "plasma concentrations in cases of lactacidosis", "setting": "[7]; in vivo", "result": "exceed 5 µg/ml"},
      {"measurement": "reduction in triglycerides", "setting": "[8]", "result": "no significant reduction"},
      {"measurement": "total cholesterol, LDL cholesterol and triglyceride levels", "setting": "lipid metabolism", "result": "reduces"}
    ]}
  ]
}
